The target of one test is human JAK2 (Homo sapiens (Human), UniProt O60674). The note with it: read-out: JAK2 IC50.
A further test deals with human FAK (Homo sapiens (Human), UniProt Q05397). Conditions: read-out: FAK IC50.
Sequence of human FAK (Q05397 whole entry): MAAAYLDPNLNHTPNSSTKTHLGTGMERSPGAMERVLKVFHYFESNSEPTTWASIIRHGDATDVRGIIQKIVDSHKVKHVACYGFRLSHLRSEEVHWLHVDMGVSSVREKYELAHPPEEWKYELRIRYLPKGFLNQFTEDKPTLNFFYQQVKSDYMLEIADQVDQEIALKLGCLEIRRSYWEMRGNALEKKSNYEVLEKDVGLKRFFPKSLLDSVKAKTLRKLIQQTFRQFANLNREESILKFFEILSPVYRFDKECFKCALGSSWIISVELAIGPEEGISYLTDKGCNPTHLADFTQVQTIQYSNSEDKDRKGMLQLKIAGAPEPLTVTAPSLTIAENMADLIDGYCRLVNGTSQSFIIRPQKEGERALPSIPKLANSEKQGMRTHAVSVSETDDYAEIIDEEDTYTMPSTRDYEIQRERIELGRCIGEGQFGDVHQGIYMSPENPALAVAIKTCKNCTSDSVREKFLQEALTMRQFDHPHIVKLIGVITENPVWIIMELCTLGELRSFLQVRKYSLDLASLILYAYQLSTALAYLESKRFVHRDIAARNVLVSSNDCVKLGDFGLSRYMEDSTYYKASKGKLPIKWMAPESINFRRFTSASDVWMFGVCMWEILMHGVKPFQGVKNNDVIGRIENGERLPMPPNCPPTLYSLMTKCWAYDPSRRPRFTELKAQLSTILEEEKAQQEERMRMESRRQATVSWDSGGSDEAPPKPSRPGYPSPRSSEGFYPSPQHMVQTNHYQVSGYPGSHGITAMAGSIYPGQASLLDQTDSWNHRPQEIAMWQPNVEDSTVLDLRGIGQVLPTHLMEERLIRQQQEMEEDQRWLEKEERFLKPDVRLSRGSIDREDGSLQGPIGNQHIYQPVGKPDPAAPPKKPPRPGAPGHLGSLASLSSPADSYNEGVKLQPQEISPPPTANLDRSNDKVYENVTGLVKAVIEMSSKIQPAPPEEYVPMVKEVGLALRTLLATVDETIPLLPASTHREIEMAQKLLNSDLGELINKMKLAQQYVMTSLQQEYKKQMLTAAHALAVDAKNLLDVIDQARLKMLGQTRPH

Sequence of human JAK2 (O60674 815-1132): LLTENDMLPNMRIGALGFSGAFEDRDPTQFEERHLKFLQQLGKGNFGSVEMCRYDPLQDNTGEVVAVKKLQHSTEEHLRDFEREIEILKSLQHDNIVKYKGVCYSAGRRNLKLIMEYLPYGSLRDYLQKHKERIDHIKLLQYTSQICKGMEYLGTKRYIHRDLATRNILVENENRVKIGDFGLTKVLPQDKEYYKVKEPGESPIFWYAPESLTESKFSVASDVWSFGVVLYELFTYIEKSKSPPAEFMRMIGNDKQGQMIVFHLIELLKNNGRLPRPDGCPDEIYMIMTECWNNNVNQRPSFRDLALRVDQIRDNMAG

Take `COc1ccc(C(F)(F)F)cc1-c1cccc2nc(Nc3ccc4c(c3)CCN(CCSC)CC4)nn12` [Example 235, [5-(2-Methoxy-5-trifluoromethyl-phenyl)-[1,2,4]triazolo[1,5-a]pyridin-2-yl]-(3-(2-methylsulfanyl-ethyl)-2,3,4,5-tetrahydro-1H-3-benzazepin-7-yl]-amine]: the IC50 on human JAK2 is 26.7 nM; on human FAK, 135 nM.
For `CN1CCN(c2ccc(Nc3nc4c(-c5ccc(CS(C)(=O)=O)cc5)cccn4n3)cc2)CC1` [Example 48, [8-(4-Methanesulfonylmethyl-phenyl)-[1,2,4]triazolo[1,5-a]pyridin-2-yl]-[4-(4-methyl-piperazin-1-yl)-phenyl]-amine], in that order: 0.7 nM and 1720 nM.
On the same counts, the results for `CS(=O)(=O)c1ccc(-c2cccn3nc(NCc4cccnc4)nc23)cc1` [Example 408, [8-(4-Methanesulfonyl-phenyl)-[1,2,4]triazolo[1,5-a]pyridin-2-yl]-pyridin-3-ylmethyl-amine] are 2760 nM and 10000 nM.
For `CS(=O)(=O)c1ccc(OCC(F)F)c(-c2cccn3nc(Nc4ccc5c(c4)CCNCC5)nc23)c1` [Example 372, {8-[2-(2,2-Difluoro-ethoxy)-5-methanesulfonyl-phenyl]-[1,2,4]triazolo[1,5-a]pyridin-2-yl}-(2,3,4,5-tetrahydro-1H-3-benzazepin-7-yl)-amine], in that order: 600 nM and 10000 nM.
`CN1CCN(C2CCN(c3cccc(Nc4nc5c(-c6ccc(S(C)(=O)=O)cc6)cccn5n4)c3)CC2)CC1` [Example 58, [8-(4-Methanesulfonyl-phenyl)-[1,2,4]triazolo[1,5-a]pyridin-2-yl]-{3-[4-(4-methyl-piperazin-1-yl)-piperidin-1-yl]-phenyl}-amine]: the values for the IC50 at human JAK2 and at human FAK were 1.5 nM and 2390 nM, respectively.
On the same counts, the results for `C[C@H](O)CN1CCN(c2cccc(Nc3nc4c(-c5ccc(S(C)(=O)=O)cc5)cccn4n3)c2)CC1` [Example 142, (S)-1-(4-{3-[8-(4-Methanesulfonyl-phenyl)-[1,2,4]triazolo[1,5-a]pyridin-2-ylamino]-phenyl}-piperazin-1-yl)-propan-2-ol] are 0.75 nM and 935 nM.
Regarding `CN1CCN(c2ccc(Nc3nc4c(CCc5ccccc5N(C)S(C)(=O)=O)cccn4n3)cc2)CC1` [Example 194, N-Methyl-N-[2-(2-{2-[4-(4-methyl-piperazin-1-yl)-phenylamino]-[1,2,4]triazolo[1,5-a]pyridin-8-yl}-ethyl)-phenyl]-methanesulfonamide], the IC50 came out at 218 nM at human JAK2 and 41.7 nM at human FAK.
For `CN1CCN(Cc2ccc(Nc3nc4cccc(-c5ccc(S(C)(=O)=O)cc5)n4n3)cc2)CC1` [Example 86, [5-(4-Methanesulfonyl-phenyl)-[1,2,4]triazolo[1,5-a]pyridin-2-yl]-[4-(4-methyl-piperazin-1-ylmethyl)-phenyl]-amine], in that order: 1.7 nM and 264 nM.
On the same counts, the results for `COc1ccc(Nc2nc3c(-c4cn[nH]c4)cccn3n2)cc1` [Example 39, (4-Methoxy-phenyl)-[8-(1H-pyrazol-4-yl)-[1,2,4]triazolo[1,5-a]pyridin-2-yl]-amine] are 32.6 nM and 2360 nM.
For `CN1CCN(c2cccc(Nc3nc4c(Nc5cccnc5N(C)S(C)(=O)=O)cccn4n3)c2)CC1` [Example 111, N-Methyl-N-(3-{2-[3-(4-methyl-piperazin-1-yl)-phenylamino]-[1,2,4]triazolo[1,5-a]pyridin-8-ylamino}-pyridin-2-yl)-methanesulfonamide], in that order: 60.3 nM and 2000 nM.
For the compound `CN1Cc2ccc(Nc3nc4c(NCc5cccnc5N(C)S(C)(=O)=O)cccn4n3)cc2C1` [Example 166, N-Methyl-N-(3-{[2-(2-methyl-2,3-dihydro-1H-isoindol-5-ylamino)-[1,2,4]triazolo[1,5-a]pyridin-8-ylamino]-methyl}-pyridin-2-yl)-methanesulfonamide], the IC50 on human JAK2 came to 12.8 nM; at human FAK it was 48.1 nM.

A word on the IC50: it is the midpoint of a concentration-inhibition curve.

Source of the values: patent US8501936B2 (priority 2009, dated 2013).
